From US20210269434A1, “TRICYCLIC COMPOUNDS AS INHIBITORS OF KRAS” (Incyte Corporation, priority 2020, published 2021)
pIC50: −log10 of the molar value.

Assays:
[1] = tested on: MIA PaCa-2 (KRAS G12C) cells; experiment: Cellular pERK HTRF assay (KRAS_G12C pERK); assay type: cell-based, human; conditions: Homo sapiens, MIA PaCa-2, 4 hours incubation, read-out: G12C_pERK
Procedure, shortened: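 MIA PaCa-2 cells plated overnight, then exposed to compound for 4 h at 37 °C (G12C compounds). Phospho-ERK1/2 measured in lysates by HTRF (665/620 nm) after overnight antibody incubation; IC50 from percent inhibition versus log concentration.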

[2] = molecular target: KRAS G12C (Homo sapiens, UniProt P01116, G12C); experiment: GDP-GTP exchange assay (KRAS_G12C exchange); assay type: biochemical; conditions: bodipy-GDP loaded KRAS G12C 2.5 nM, SOS1 150 nM, GppNHp; 2 hours pre-incubation, 2 hours reaction; read-out: G12C_exchange
Sequence of KRAS G12C (P01116 1-188 isoform P01116-2 G12C): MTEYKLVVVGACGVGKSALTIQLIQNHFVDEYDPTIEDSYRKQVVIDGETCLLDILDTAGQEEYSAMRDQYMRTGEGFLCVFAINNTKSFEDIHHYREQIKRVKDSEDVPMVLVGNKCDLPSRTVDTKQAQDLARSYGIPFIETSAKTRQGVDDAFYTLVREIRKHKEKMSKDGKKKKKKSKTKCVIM
Procedure, shortened: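 Fluorescence exchange of bodipy-GDP for GppNHp, SOS1-driven, read at 485/520 nm; IC50 from four-parameter variable-slope fit. Both mutants used 2.5 nM final labelled protein and a 2 h compound pre-incubation. G12C reaction had 500 uM GppNHp and 150 nM SOS1 for 2 h; G12D ran 4 h.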

Row | Compound | pIC50 [1] | pIC50 [2]
1 | Cc1cccc(-c2c(C)cc3c(nc(N4CC(N(C)C)C4)c4nnn([C@H]5CCN(C(=O)/C=C/CF)[C@H](CC#N)C5)c43)c2F)c1Cl [Example 248, 2-((2S,4S)-4-(7-(2-chloro-3-methylphenyl)-4-(3-(dimethylamino)azetidin-1-yl)-6-fluoro-8-methyl-1H-[1,2,3]triazolo[4,5-c]quinolin-1-yl)-1-((E)-4-fluorobut-2-enoyl)piperidin-2-yl)acetonitrile] | ≥ 7.00 | ≥ 7.00
2 | Cc1cccc(-c2c(C)cc3c(nc(N4CC(N(C)C)C4)c4nnn([C@H]5CCN(C(=O)/C=C/CN(C)C)[C@H](CC#N)C5)c43)c2F)c1Cl [Example 249, 2-((2S,4S)-4-(7-(2-chloro-3-methylphenyl)-4-(3-(dimethylamino)azetidin-1-yl)-6-fluoro-8-methyl-1H-[1,2,3]triazolo[4,5-c]quinolin-1-yl)-1-((E)-4-(dimethylamino)but-2-enoyl)piperidin-2-yl)acetonitrile] | ≥ 7.00 | ≥ 7.00
3 | CC#CC(=O)N1CC[C@H](n2nnc3c(N4CC(N(C)C)C4)nc4c(F)c(-c5cccc(C)c5Cl)c(C)cc4c32)C[C@H]1CC#N [Example 250, 2-((2S,4S)-1-(but-2-ynoyl)-4-(7-(2-chloro-3-methylphenyl)-4-(3-(dimethylamino)azetidin-1-yl)-6-fluoro-8-methyl-1H-[1,2,3]triazolo[4,5-c]quinolin-1-yl)piperidin-2-yl)acetonitrile] | ≥ 7.00 | ≥ 7.00
4 | C=CC(=O)N1CC[C@H](n2nnc3c(OC[C@@H]4CCCN4C)nc4c(F)c(-c5cccc(C)c5Cl)c(C)cc4c32)C[C@H]1CC#N [Example 251, 2-((2S,4S)-1-acryloyl-4-(7-(2-chloro-3-methylphenyl)-6-fluoro-8-methyl-4-(((S)-1-methylpyrrolidin-2-yl)methoxy)-1H-[1,2,3]triazolo[4,5-c]quinolin-1-yl)piperidin-2-yl)acetonitrile] | ≥ 7.00 | ≥ 7.00
5 | Cc1cccc(-c2c(C)cc3c(nc(-n4ccnc4C)c4nnn([C@H]5CCN(C(=O)/C=C/CN(C)C)[C@H](CC#N)C5)c43)c2F)c1Cl [Example 252, 2-((2S,4S)-4-(7-(2-chloro-3-methylphenyl)-6-fluoro-8-methyl-4-(2-methyl-1H-imidazol-1-yl)-1H-[1,2,3]triazolo[4,5-c]quinolin-1-yl)-1-((E)-4-(dimethylamino)but-2-enoyl)piperidin-2-yl)acetonitrile] | ≥ 7.00 | ≥ 7.00
6 | Cc1cccc(-c2c(C)cc3c(nc(OC[C@@H]4CCCN4C)c4nnn([C@H]5CCN(C(=O)/C=C/CF)[C@H](CC#N)C5)c43)c2F)c1Cl [Example 253, 2-((2S,4S)-4-(7-(2-chloro-3-methylphenyl)-6-fluoro-8-methyl-4-(((S)-1-methylpyrrolidin-2-yl)methoxy)-1H-[1,2,3]triazolo[4,5-c]quinolin-1-yl)-1-((E)-4-fluorobut-2-enoyl)piperidin-2-yl)acetonitrile] | ≥ 7.00 | ≥ 7.00
7 | CC#CC(=O)N1CC[C@H](n2nnc3c(OC[C@@H]4CCCN4C)nc4c(F)c(-c5cccc(C)c5Cl)c(C)cc4c32)C[C@H]1CC#N [Example 254, 2-((2S,4S)-1-(but-2-ynoyl)-4-(7-(2-chloro-3-methylphenyl)-6-fluoro-8-methyl-4-(((S)-1-methylpyrrolidin-2-yl)methoxy)-1H-[1,2,3]triazolo[4,5-c]quinolin-1-yl)piperidin-2-yl)acetonitrile] | ≥ 7.00 | ≥ 7.00
8 | C=CC(=O)N1CC[C@H](n2nnc3c(N4CC(C)(N(C)C)C4)nc4c(F)c(-c5cccc(C)c5Cl)c(C)cc4c32)C[C@H]1CC#N [Example 255, 2-((2S,4S)-1-acryloyl-4-(7-(2-chloro-3-methylphenyl)-4-(3-(dimethylamino)-3-methylazetidin-1-yl)-6-fluoro-8-methyl-1H-[1,2,3]triazolo[4,5-c]quinolin-1-yl)piperidin-2-yl)acetonitrile] | ≥ 7.00 | ≥ 7.00
9 | Cc1cccc(-c2c(C)cc3c(nc(N4CC(C)(N(C)C)C4)c4nnn([C@H]5CCN(C(=O)/C=C/CF)[C@H](CC#N)C5)c43)c2F)c1Cl [Example 256, 2-((2S,4S)-4-(7-(2-chloro-3-methylphenyl)-4-(3-(dimethylamino)-3-methylazetidin-1-yl)-6-fluoro-8-methyl-1H-[1,2,3]triazolo[4,5-c]quinolin-1-yl)-1-((E)-4-fluorobut-2-enoyl)piperidin-2-yl)acetonitrile] | ≥ 7.00 | ≥ 7.00
10 | Cc1cccc(-c2c(C)cc3c(nc(N4CC(C)(N(C)C)C4)c4nnn([C@H]5CCN(C(=O)/C=C/CN(C)C)[C@H](CC#N)C5)c43)c2F)c1Cl [Example 257, 2-((2S,4S)-4-(7-(2-chloro-3-methylphenyl)-4-(3-(dimethylamino)-3-methylazetidin-1-yl)-6-fluoro-8-methyl-1H-[1,2,3]triazolo[4,5-c]quinolin-1-yl)-1-((E)-4-(dimethylamino)but-2-enoyl)piperidin-2-yl)acetonitrile] | ≥ 7.00 | ≥ 7.00
11 | CC#CC(=O)N1CC[C@H](n2nnc3c(N4CC(C)(N(C)C)C4)nc4c(F)c(-c5cccc(C)c5Cl)c(C)cc4c32)C[C@H]1CC#N [Example 258, 2-((2S,4S)-1-(but-2-ynoyl)-4-(7-(2-chloro-3-methylphenyl)-4-(3-(dimethylamino)-3-methylazetidin-1-yl)-6-fluoro-8-methyl-1H-[1,2,3]triazolo[4,5-c]quinolin-1-yl)piperidin-2-yl)acetonitrile] | ≥ 7.00 | ≥ 7.00
12 | C=CC(=O)N1CC[C@H](n2nnc3c(N4CCOCC4=O)nc4c(F)c(-c5cccc(C)c5Cl)c(C)cc4c32)C[C@H]1CC#N [Example 259, 2-((2S,4S)-1-acryloyl-4-(7-(2-chloro-3-methylphenyl)-6-fluoro-8-methyl-4-(3-oxomorpholino)-1H-[1,2,3]triazolo[4,5-c]quinolin-1-yl)piperidin-2-yl)acetonitrile] | ≥ 7.00 | ≥ 7.00
13 | CC#CC(=O)N1CC[C@H](n2nnc3c(N4CCOCC4=O)nc4c(F)c(-c5cccc(C)c5Cl)c(C)cc4c32)C[C@H]1CC#N [Example 260, 2-((2S,4S)-1-(but-2-ynoyl)-4-(7-(2-chloro-3-methylphenyl)-6-fluoro-8-methyl-4-(3-oxomorpholino)-1H-[1,2,3]triazolo[4,5-c]quinolin-1-yl)piperidin-2-yl)acetonitrile] | ≥ 7.00 | ≥ 7.00
14 | Cc1cccc(-c2c(C)cc3c(nc(N4CCOCC4=O)c4nnn([C@H]5CCN(C(=O)/C=C/CF)[C@H](CC#N)C5)c43)c2F)c1Cl [Example 261, 2-((2S,4S)-4-(7-(2-chloro-3-methylphenyl)-6-fluoro-8-methyl-4-(3-oxomorpholino)-1H-[1,2,3]triazolo[4,5-c]quinolin-1-yl)-1-((E)-4-fluorobut-2-enoyl)piperidin-2-yl)acetonitrile] | ≥ 7.00 | ≥ 7.00
15 | Cc1cccc(-c2c(Cl)cc3c(nc(N4CC(N(C)C)C4)c4ncn([C@H]5CCN(C(=O)/C=C/CN(C)C)[C@H](CC#N)C5)c43)c2F)c1C(F)(F)F [Example 262, 2-((2S,4S)-4-(8-chloro-4-(3-(dimethylamino)azetidin-1-yl)-6-fluoro-7-(3-methyl-2-(trifluoromethyl)phenyl)-1H-imidazo[4,5-c]quinolin-1-yl)-1-((E)-4-(dimethylamino)but-2-enoyl)piperidin-2-yl)acetonitrile] | ≥ 7.00 | ≥ 7.00
